{"source": "paper PMC12316308", "about": "“Interactions of substrates and phosphinyl containing inhibitors with bacterial and human zinc proteases” (PLOS One, 2025)", "key": {"[1]": {"target": "T1, human MT1-MMP/MMP-14 (catalytic domain) (Homo sapiens, UniProt P50281)", "T1 construct": "human MT1-MMP/MMP-14 (catalytic domain); purchased Calbiochem (San Diego, CA, USA)", "assay": "Enzyme inhibition kinetics, fluorogenic substrate ES001", "type": "biochemical", "conditions": "inhibitor 10 μM"}, "[2]": {"test_system": "MMP-12", "design": "method as in PMID 27996256, PMID 23343195", "conditions": "cited from earlier work"}}, "note": "“And” between values parts separate entries of the source, which are not always exact repeats. Equal entries are not always repeated.", "data": [{"smiles": "NC(=O)C(Cc1c[nH]c2ccccc12)NC(=O)C(CCCc1ccccc1)CP(=O)(O)C(Cc1ccccc1)NC(=O)OCc1ccccc1", "note": "(stereo not drawn) [H-2]", "values": [{"measurement": "vi/v0 (relative enzyme activity with inhibitor), single determinations", "setting": "[1]; preincubation 15 min", "value": "0.1646 and 0.1715 and 0.1368 and 0.1654"}, {"measurement": "vi/v0 (relative enzyme activity with inhibitor), single determinations", "setting": "[1]; preincubation 30 min", "value": "0.1465 and 0.1449 and 0.1477 and 0.1505"}]}, {"smiles": "NC(=O)C(CCC(=O)O)NC(=O)C(CCC(=O)O)NC(=O)C(Cc1cc(-c2ccc(-c3cccc(Cl)c3)cc2)no1)CP(=O)(O)c1ccc(Br)cc1", "note": "(stereo not drawn) [H-1]", "values": [{"measurement": "pH dependence of Ki", "setting": "[2]", "value": "increasing approximately ten times for each unit increase in buffer pH"}]}]}
